Measured values: paper PMC4503722, “Novel Phenotypic Outcomes Identified for a Public Collection of Approved Drugs from a Publicly Accessible Panel of Assays” (PLoS ONE, 2015)
Like-named read-outs stand apart in the source and are kept apart here.

Tests used:
RKO = test: cells; format: cell-based; conditions: for IC50: read-out: Basal_Viability ATP RKO summarized IC50
hJAK2 = molecular target: T1, hJAK2 (Homo sapiens, UniProt O60674); test: Cerep LANCE kinase assay hJAK2 (S1 assay 33); format: biochemical; conditions: for IC50: read-out: hJAK2 LANCE summarized IC50
T1 construct: purchased Cerep (LANCE kinase assay platform, contract assay)

[1] = system: ECFC/ADSC co-culture cell nuclei number; conditions: for IC50: read-out: VEGF_ADSC\ECFC Angio Hoechst NucArea summarized IC50
HeLa cells = test: cells; format: cell-based;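 on Hela CellCycMod PI 4N summarized IC50: value tracks stimulation of 4N DNA content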
hGSK3b = molecular target: T2, hGSK3b (Homo sapiens, UniProt P49841); test: Cerep LANCE kinase assay hGSK3b (S1 assay 34); format: biochemical; conditions: for IC50: read-out: hGSK3b LANCE summarized IC50
T2 construct: purchased Cerep (LANCE kinase assay platform, contract assay)

hp70S6K1 (RPS6KB1) = molecular target: T3, hp70S6K1 (RPS6KB1) (Homo sapiens, UniProt P23443); test: Cerep LANCE kinase assay hp70S6K1 (S1 assay 31); format: biochemical; conditions: for IC50: read-out: hp70S6K1 LANCE summarized IC50
T3 construct: purchased Cerep (LANCE kinase assay platform, contract assay)

Colo320 = test: cells; format: cell-based; conditions: for IC50: read-out: Basal_Viability ATP Colo 320 summarized IC50
SNU-C1 = test: cells; format: cell-based; conditions: for IC50: read-out: Basal_Viability ATP SNU-C1 summarized IC50
HCT116 = test: cells; format: cell-based; conditions: for IC50: read-out: Basal_Viability ATP HCT116 summarized IC50
[2] = system: HCT116 cells treated with a GSK3β inhibitor; test: cells; format: cell-based; conditions: for IC50: read-out: GSK3b inh pretreated_Viability ATP HCT116 summarized IC50
SW480 = test: cells; format: cell-based; conditions: for IC50: read-out: Basal_Viability ATP SW480 summarized IC50
DLD-1 = test: cells; format: cell-based; conditions: for IC50: read-out: Basal_Viability ATP DLD-1 summarized IC50
hFLT3 = molecular target: T4, hFLT3 (Homo sapiens, UniProt P36888); test: Cerep LANCE kinase assay hFLT3 (S1 assay 35); format: biochemical; conditions: for IC50: read-out: hFLT3 LANCE summarized IC50
T4 construct: purchased Cerep (LANCE kinase assay platform, contract assay)

hKDR = molecular target: T5, hKDR (Homo sapiens, UniProt P35968); test: Cerep LANCE kinase assay hKDR (S1 assay 32); format: biochemical; conditions: for IC50: read-out: hKDR LANCE summarized IC50
T5 construct: purchased Cerep (LANCE kinase assay platform, contract assay)

HT-29 = test: cells; format: cell-based; conditions: for IC50: read-out: Basal_Viability ATP HT-29 summarized IC50
[3] = system: endothelial tube formation in co-cultures of ECFCs and ADSCs treated with VEGF; test: cells; format: cell-based, human; conditions: for IC50: read-out: VEGF_ADSC\ECFC Angio CD31 TubeArea summarized IC50
[4] = assay number 14, 2N, read-out: Hela CellCycMod PI 2N summarized IC50
[5] = assay number 16, 4N, read-out: Hela CellCycMod PI 4N summarized IC50
[6] = assay number 17, MI, read-out: Hela CellCycMod PI MI summarized IC50
[7] = assay number 26, GSK3b inhibitor pretreated

T2 sequence (P49841 whole entry): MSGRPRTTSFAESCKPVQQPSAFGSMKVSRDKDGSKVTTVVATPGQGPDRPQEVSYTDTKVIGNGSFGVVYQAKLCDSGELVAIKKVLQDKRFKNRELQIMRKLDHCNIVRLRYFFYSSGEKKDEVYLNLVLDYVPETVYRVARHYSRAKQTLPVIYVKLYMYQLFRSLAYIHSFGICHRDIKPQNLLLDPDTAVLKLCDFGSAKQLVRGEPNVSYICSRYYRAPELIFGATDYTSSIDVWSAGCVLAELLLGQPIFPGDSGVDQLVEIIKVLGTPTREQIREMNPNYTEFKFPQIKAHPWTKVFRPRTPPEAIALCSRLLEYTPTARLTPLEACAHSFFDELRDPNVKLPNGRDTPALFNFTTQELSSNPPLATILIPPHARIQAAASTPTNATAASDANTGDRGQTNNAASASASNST
T5 sequence (P35968 20-1356): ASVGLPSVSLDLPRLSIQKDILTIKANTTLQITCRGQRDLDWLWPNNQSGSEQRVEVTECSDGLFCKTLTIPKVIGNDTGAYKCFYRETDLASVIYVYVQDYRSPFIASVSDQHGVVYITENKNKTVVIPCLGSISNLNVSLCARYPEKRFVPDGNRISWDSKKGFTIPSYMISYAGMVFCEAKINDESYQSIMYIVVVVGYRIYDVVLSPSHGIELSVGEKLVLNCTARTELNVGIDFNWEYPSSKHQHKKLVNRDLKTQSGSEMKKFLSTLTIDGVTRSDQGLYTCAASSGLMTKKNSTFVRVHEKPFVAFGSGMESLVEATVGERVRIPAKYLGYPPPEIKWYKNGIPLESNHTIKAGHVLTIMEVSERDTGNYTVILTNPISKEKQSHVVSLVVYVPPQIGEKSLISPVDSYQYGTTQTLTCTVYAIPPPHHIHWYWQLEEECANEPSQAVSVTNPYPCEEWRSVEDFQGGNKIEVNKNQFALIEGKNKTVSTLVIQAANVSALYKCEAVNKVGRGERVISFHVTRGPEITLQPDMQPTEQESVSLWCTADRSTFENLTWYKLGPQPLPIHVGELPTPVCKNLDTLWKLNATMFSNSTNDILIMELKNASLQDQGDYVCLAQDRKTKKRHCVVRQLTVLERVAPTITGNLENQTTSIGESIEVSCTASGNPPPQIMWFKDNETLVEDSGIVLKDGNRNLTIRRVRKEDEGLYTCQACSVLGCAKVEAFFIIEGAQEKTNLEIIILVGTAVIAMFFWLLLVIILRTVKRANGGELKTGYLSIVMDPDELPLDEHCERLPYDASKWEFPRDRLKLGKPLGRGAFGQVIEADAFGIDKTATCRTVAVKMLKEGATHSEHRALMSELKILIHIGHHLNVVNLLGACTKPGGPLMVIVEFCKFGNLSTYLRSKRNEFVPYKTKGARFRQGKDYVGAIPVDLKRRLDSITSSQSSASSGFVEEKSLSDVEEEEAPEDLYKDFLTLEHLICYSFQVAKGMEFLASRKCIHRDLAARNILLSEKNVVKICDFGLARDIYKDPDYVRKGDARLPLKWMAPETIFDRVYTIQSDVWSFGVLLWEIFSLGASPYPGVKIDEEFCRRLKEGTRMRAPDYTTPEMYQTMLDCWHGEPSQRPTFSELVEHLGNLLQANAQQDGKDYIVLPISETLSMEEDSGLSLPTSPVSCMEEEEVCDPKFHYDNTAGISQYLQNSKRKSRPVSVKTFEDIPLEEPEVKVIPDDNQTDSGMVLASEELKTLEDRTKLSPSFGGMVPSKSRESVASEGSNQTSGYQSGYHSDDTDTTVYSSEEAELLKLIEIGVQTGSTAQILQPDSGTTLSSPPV
T3 sequence (P23443 whole entry): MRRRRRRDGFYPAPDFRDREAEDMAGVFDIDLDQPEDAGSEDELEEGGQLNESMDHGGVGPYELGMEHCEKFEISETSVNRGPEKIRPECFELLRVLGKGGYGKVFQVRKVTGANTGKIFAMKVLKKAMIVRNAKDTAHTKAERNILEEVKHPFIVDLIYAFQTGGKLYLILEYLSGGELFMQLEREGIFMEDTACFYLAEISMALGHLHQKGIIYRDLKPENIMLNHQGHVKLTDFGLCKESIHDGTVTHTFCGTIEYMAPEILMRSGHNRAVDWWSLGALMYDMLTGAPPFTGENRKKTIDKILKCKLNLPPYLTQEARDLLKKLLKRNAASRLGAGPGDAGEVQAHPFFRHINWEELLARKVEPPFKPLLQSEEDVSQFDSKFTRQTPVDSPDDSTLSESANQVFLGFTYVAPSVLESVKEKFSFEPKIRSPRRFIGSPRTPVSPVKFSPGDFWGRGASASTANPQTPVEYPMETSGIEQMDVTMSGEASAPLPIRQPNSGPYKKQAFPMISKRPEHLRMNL
T1 sequence (O60674 whole entry): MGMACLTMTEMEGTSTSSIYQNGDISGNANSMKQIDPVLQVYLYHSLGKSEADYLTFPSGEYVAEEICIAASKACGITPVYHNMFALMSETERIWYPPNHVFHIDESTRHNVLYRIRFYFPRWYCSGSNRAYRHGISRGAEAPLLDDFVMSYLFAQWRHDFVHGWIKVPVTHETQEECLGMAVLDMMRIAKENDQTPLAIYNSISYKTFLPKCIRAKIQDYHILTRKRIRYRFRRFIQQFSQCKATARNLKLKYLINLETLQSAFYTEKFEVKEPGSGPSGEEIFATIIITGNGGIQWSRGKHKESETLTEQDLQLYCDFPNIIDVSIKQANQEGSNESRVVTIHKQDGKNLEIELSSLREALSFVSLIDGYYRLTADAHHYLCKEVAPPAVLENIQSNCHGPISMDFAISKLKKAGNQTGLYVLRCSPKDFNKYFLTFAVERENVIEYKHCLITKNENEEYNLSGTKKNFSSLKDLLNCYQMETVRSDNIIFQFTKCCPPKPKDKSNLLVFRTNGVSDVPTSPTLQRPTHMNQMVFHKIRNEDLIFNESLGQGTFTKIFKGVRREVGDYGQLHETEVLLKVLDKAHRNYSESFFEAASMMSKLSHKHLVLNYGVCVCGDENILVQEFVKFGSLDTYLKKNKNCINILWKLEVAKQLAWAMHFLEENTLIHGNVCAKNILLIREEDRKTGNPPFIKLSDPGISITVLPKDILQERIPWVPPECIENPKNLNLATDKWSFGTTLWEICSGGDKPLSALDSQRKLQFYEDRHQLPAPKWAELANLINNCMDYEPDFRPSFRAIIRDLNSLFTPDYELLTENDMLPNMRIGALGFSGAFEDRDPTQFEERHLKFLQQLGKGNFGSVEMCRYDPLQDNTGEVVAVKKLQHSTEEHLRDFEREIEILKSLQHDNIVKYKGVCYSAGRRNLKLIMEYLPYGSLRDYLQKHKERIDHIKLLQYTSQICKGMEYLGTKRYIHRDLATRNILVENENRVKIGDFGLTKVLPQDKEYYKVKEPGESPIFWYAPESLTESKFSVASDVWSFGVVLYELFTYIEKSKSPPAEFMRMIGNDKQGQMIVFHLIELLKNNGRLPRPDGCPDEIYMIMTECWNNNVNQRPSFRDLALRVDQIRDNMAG
T4 sequence (P36888 27-993): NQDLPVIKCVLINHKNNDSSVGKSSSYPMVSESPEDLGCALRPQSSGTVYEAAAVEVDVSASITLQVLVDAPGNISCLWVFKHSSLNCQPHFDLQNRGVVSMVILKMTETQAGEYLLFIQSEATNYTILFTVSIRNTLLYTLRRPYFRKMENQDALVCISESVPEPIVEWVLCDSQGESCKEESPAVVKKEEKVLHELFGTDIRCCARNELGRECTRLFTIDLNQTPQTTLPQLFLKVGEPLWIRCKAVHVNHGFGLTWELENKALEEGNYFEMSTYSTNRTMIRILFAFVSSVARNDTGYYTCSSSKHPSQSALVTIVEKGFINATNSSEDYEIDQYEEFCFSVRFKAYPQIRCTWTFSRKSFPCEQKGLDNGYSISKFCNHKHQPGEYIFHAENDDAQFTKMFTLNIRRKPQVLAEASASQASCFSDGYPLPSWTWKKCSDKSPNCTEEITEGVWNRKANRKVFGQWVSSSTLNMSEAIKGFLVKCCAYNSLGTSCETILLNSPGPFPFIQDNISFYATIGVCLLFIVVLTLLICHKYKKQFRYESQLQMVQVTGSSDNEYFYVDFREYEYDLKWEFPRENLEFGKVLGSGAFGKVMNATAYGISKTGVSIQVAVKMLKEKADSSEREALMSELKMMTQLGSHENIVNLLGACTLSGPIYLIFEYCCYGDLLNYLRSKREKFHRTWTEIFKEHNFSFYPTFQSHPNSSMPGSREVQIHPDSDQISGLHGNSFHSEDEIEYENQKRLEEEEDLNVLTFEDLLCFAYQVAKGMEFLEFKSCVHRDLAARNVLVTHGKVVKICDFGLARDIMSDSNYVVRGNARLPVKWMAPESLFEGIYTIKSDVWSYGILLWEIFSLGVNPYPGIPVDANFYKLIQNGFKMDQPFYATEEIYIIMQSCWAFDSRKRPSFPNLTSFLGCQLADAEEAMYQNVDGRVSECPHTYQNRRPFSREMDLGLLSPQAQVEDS

SMILES: Nc1nc(=S)c2[nH]cnc2[nH]1 [NCGC00263442-01]
- IC50 (RKO): 343 nM
- IC50 (hJAK2): > 20 µM
- IC50 [1]: > 10 µM
- IC50 (HeLa cells; read-out: Hela CellCycMod PI 2N summarized IC50): > 10 µM
- IC50 (HeLa cells; read-out: Hela CellCycMod PI 4N summarized IC50): > 10 µM
- IC50 (HeLa cells; read-out: Hela CellCycMod PI Cell Number summarized IC50): > 10 µM
- IC50 (HeLa cells; read-out: Hela CellCycMod PI MI summarized IC50): > 10 µM
- IC50 (HeLa cells; read-out: Hela CellCycMod PI S Phase summarized IC50): > 10 µM
- IC50 (hGSK3b): > 20 µM
- IC50 (hp70S6K1 (RPS6KB1)): > 20 µM
- IC50 (Colo320): 373 nM
- IC50 (SNU-C1): 4.4 µM
- IC50 (HCT116): 139 nM
- IC50 [2]: 163 nM
- IC50 (SW480): 402 nM
- IC50 (DLD-1): 108 nM
- IC50 (hFLT3): > 20 µM
- IC50 (hKDR): > 20 µM
- IC50 (HT-29): 49.3 nM
- IC50 [3]: 622 nM

SMILES: Oc1c(Cl)cc(Cl)c2cccnc12 [NCGC00095264-04]
- IC50 (RKO; assay number 29, basal): 62.7 nM
- IC50 (hJAK2; assay number 33): > 20 µM
- IC50 [1]: > 10 µM
- IC50 (HeLa cells; [4]): > 10 µM
- IC50 (HeLa cells; [5]): > 10 µM
- IC50 (HeLa cells; [6]): > 10 µM
- IC50 (hGSK3b; assay number 34): > 20 µM
- IC50 (hp70S6K1 (RPS6KB1); assay number 31): > 20 µM
- IC50 (Colo320; assay number 27, basal): 49.3 nM
- IC50 (SNU-C1; assay number 30, basal): 0.495 µM
- IC50 (HCT116; assay number 25, basal): 47.5 nM
- IC50 [2, 7]: 39.3 nM
- IC50 (SW480; assay number 24, basal): 43.8 nM
- IC50 (DLD-1; assay number 23, basal): 409 nM
- IC50 (hFLT3; assay number 35): > 20 µM
- IC50 (hKDR; assay number 32): > 20 µM
- IC50 (HT-29; assay number 28, basal): > 20000 nM
- IC50 [3]: 2000 nM

SMILES: COc1c(C)c2c(c(O)c1C/C=C(\C)CCC(=O)OCCN1CCOCC1)C(=O)OC2 [NCGC00159459-04]
- Basal_Viability ATP RKO IC50/EC50 (RKO; assay number 29, basal): 0.1648 µM
- hJAK2 LANCE IC50/EC50 (hJAK2; assay number 33): > 20 µM
- VEGF_ADSC\ECFC Angio Hoechst NucArea IC50/EC50 [1]: > 10 µM
- Hela CellCycMod PI 2N IC50/EC50 (HeLa cells; assay number 14, 2N): > 10 µM
- Hela CellCycMod PI S Phase IC50/EC50 (HeLa cells; assay number 15, S phase): 0.0147 µM
- Hela CellCycMod PI 4N IC50/EC50 (HeLa cells; assay number 16, 4N): > 10 µM
- Hela CellCycMod PI MI IC50/EC50 (HeLa cells; assay number 17, MI): > 10 µM
- Hela CellCycMod PI Cell Number IC50/EC50 (HeLa cells; assay number 18, cell number): > 10 µM
- hGSK3b LANCE IC50/EC50 (hGSK3b; assay number 34): > 20 µM
- hp70S6K1 LANCE IC50/EC50 (hp70S6K1 (RPS6KB1); assay number 31): > 20 µM
- Basal_Viability ATP Colo 320 IC50/EC50 (Colo320; assay number 27, basal): 1 nM
- Basal_Viability ATP SNU-C1 IC50/EC50 (SNU-C1; assay number 30, basal): > 20 µM
- Basal_Viability ATP HCT116 IC50/EC50 (HCT116; assay number 25, basal): 0.0672 µM
- GSK3b inh pretreated_Viability ATP HCT116 IC50/EC50 [2, 7]: 0.0498 µM
- Basal_Viability ATP SW480 IC50/EC50 (SW480; assay number 24, basal): 2.5974 µM
- Basal_Viability ATP DLD-1 IC50/EC50 (DLD-1; assay number 23, basal): > 20 µM
- hFLT3 LANCE IC50/EC50 (hFLT3; assay number 35): > 20 µM
- hKDR LANCE IC50/EC50 (hKDR; assay number 32): > 20 µM
- Basal_Viability ATP HT-29 IC50/EC50 (HT-29; assay number 28, basal): > 20 µM
- VEGF_ADSC\ECFC Angio CD31 TubeArea IC50/EC50 [3]: 1.2605 µM

SMILES: S=c1nc[nH]c2nc[nH]c12 [NCGC00094717-06]
- IC50 (RKO; assay number 29, basal): 659 nM
- IC50 (hJAK2; assay number 33): > 20 µM
- IC50 [1]: > 10 µM
- IC50 (HeLa cells; [4]): > 10 µM
- IC50 (HeLa cells; [5]): > 10 µM
- IC50 (HeLa cells; [6]): > 10 µM
- IC50 (HeLa cells; assay number 18, cell number, read-out: Hela CellCycMod PI Cell Number summarized IC50): > 10 µM
- IC50 (hGSK3b; assay number 34): > 20 µM
- IC50 (hp70S6K1 (RPS6KB1); assay number 31): > 20 µM
- IC50 (Colo320; assay number 27, basal): 1300 nM
- IC50 (SNU-C1; assay number 30, basal): > 20 µM
- IC50 (HCT116; assay number 25, basal): 259 nM
- IC50 [2, 7]: 1420 nM
- IC50 (SW480; assay number 24, basal): 1040 nM
- IC50 (DLD-1; assay number 23, basal): 260 nM
- IC50 (hFLT3; assay number 35): > 20 µM
- IC50 (hKDR; assay number 32): > 20 µM
- IC50 (HT-29; assay number 28, basal): 635 nM
- IC50 [3]: 915 nM
